According to publication PMC10976160, “Comparative Pharmacokinetics Research of 13 Bioactive Components of Jieyu Pills in Control and Attention Deficit Hyperactivity Disorder Model Rats Based on UPLC-Orbitrap Fusion MS” (Molecules, 2024):
Like-named read-outs stand apart in the source and are kept apart here.

How the values were obtained:
[1] = Pharmacokinetics in ADHD model rats after gavage of JYPs; format: in vivo, SHR rats (ADHD model); details: for peak time: oral JYPs; for AUC(0-inf) / AUC(0-t) / Cmax / Tmax / half-life / MRT last / MRT inf: male, SHR, rat, plasma; for MRT last: read-out: MRT(0-t); for MRT inf: read-out: MRT(0-∞)
Protocol: Based on the established analytical method for plasma samples, a pharmacokinetic study was conducted on 13 constituents in the plasma of ADHD model rats after gavage of JYPs (Figure 3). The linearity of ln(AUC0-t)–ln(dose) and ln(Cmax)–ln(dose) was analyzed in the same way.
For the control experiment, healthy male Sprague Dawley (SD) rats of SPF grade ([…] ± 20 g) were purchased from Sipeifu (Beijing) Biotechnology Co., Ltd. (Beijing, China), Animal Quality Certificate No. 110324220102348616. For the ADHD model rats, healthy male SHR rats of SPF grade, weighing 220 ± 20 g, were purchased from SBF (Beijing) Biotechnology Co., Ltd. (Beijing, China), License No. SCXK (Yu) 2019-0010. The animals were accommodated in the Animal Center of Henan University of Traditional Chinese Medicine, which successfully underwent an ethical audit with ethics number DWLL202208003. The animals were bred under controlled conditions at a temperature of 24 °C and a relative humidity of 50 ± 2%. Before the experiment, the animals abstained from eating for 12 h and had unrestricted access to water. The feeding and experimental research conducted on the experimental animals adhered to the laws outlined in the Management of Experimental Animals in Henan Province.
JYPs were ground into a fine powder and sieved through 60-mesh sieves; then, 20 g of fine JYP powder was taken, having been weighed precisely. A precise volume of 50 mL of pure water was added and mixed well to prepare a 0.4 g/mL suspension solution of JYPs, which was then stored in the refrigerator at 4 °C.
This study involved 24 healthy male SD rats with a body mass of 220 ± 20 g and 24 healthy male ADHD rats with a body mass of 220 ± 20 g. Subjects abstained from food for a duration of 12 h before the experiment and consumed water without restriction. Both kinds of rats were randomly divided into four groups: a blank group, given an equal dose of water intragastrically, and 3 different administration groups: rats given the equivalent human dose of JYPs by gavage in doses of 1.080 g/kg/d, 2.160 g/kg/d, and 4.320 g/kg/d. Tail vein blood was collected at 0.083, 0.25, 0.5, 0.75, 1, 1.5, 2, 3, 4, 6, 8, 12, 18, and 24 h after dosing. About 0.5 mL of blood was collected in sodium heparin centrifugal tubes, then centrifuged at 4 °C for 10 min at a speed of 3500r/min. We took the upper layer and placed it at −80 °C for preservation.
We took 200 μL of plasma, added 600 μL of methanol solution and 50 μL of internal standard (100 ng/mL), and subjected it to shaking for 5 min, followed by centrifugation at 4 °C at 12,000 r/min for 10 min. The supernatant was collected and allowed to dry, then reconstituted with 50 μL of 50% methanol and centrifuged at 4 °C at 14,000 r/min for a further 10 min. The supernatant after this process was taken as the test solution. A volume of 5 μL was used for UPLC-MS analysis. The drug concentration in plasma was calculated with the aid of the internal standard.
Chromatographic conditions: Hypersil GOLD (100 × 2.1 mm, 1.9 μm) column; column temperature 35 °C; mobile phase acetonitrile (A)/0.1% formic acid aqueous solution (B); gradient elution; gradient elution program: 0–0.5 min (95% B–95% B), 0.5–8 min (95% B–50% B), 8–14 min (50% B–20% B), 14–20 min (20% B–5% B), 20–22 min (5% B–5% B), 22–25 min (95% B–95% B); flow rate 0.2 mL/min; injection volume 5 μL. The ion source was electrospray ionization (ESI), with positive and negative ion mode spray voltages of 3.50 and 3.0 kV, an ion transfer tube temperature of 300 °C, nitrogen as the carrier gas, a sheath gas pressure of 35 arb, an auxiliary gas pressure of 8 arb, and an auxiliary heater temperature of 275 °C.

[2] = set-up: method as in PMID 32135035; details: rats, oral dosing; cited from earlier work
[3] = ADHD model rats, oral JYPs high dose 4.320 g/kg/d (3rd of 3 values)
[4] = ADHD model rats, oral JYPs low dose 1.080 g/kg/d (1st of 3 values)
[5] = ADHD model rats, oral JYPs medium dose 2.160 g/kg/d (2nd of 3 values)
[6] = 1.08 g/kg/day, ADHD model rats, oral JYPs low dose 1.080 g/kg/d (1st of 3 values)
[7] = 2.16 g/kg/day, ADHD model rats, oral JYPs medium dose 2.160 g/kg/d (2nd of 3 values)
[8] = 4.32 g/kg/day, ADHD model rats, oral JYPs high dose 4.320 g/kg/d (3rd of 3 values)

| SMILES | AUMC(0-t) [1, 3] | AUMC(0-ꝏ) [1, 3] | AUMC(0-t) [1, 4] | AUMC(0-ꝏ) [1, 4] | AUMC(0-t) [1, 5] | AUMC(0-ꝏ) [1, 5] | AUC(0-inf) [1, 6] [ng·h/mL] | AUC(0-t) [1, 6] [ng·h/mL] | Cmax [1, 6] [ng/mL] | Tmax [1, 6] [h] | half-life [1, 6] [h] | MRT last [1, 6] [h] | MRT inf [1, 6] [h] | AUC(0-inf) [1, 7] [ng·h/mL] | AUC(0-t) [1, 7] [ng·h/mL] | Cmax [1, 7] [ng/mL] | Tmax [1, 7] [h] | MRT last [1, 7] [h] | MRT inf [1, 7] [h] | AUC(0-inf) [1, 8] [ng·h/mL] | also measured |
| --- | --- | --- | --- | --- | --- | --- | --- | --- | --- | --- | --- | --- | --- | --- | --- | --- | --- | --- | --- | --- | --- |
| C[C@H]1O[C@@H](O[C@H]2CC[C@@]3(C)[C@@H](CC[C@]4(C)[C@@H]3C=C[C@]35OC[C@@]6(CCC(C)(C)C[C@H]63)[C@@H](O)C[C@]54C)[C@]2(C)CO)[C@H](O)[C@@H](O[C@@H]2O[C@H](CO)[C@@H](O)[C@H](O)[C@H]2O)[C@H]1O [Saikosaponin A] | 2395.92± 288.80 ng/mL*(h)² | 5783.46± 3073.92 ng/mL*(h)² | 1392.40± 460.59 ng/mL*(h)² | 4853.64± 3957.39 ng/mL*(h)² | 1937.54± 771.89 ng/mL*(h)² | 5558.75± 2961.42 ng/mL*(h)² | 233 ± 91.2 | 164 ± 57.5 | 40.9 ± 22.9 | 0.5 ± 0.16 | 13.3 ± 7.06 | 8.75 ± 1.6 | 19.4 ± 9.93 | 324 ± 131 | 240 ± 96.6 | 53 ± 19.2 | 0.79 ± 0.19 | 8.13 ± 1.23 | 16.8 ± 3.55 | 387 ± 78.7 | peak time ([1]; ADHD model rats): less than 1 h; Clearances [1, 3]: 2855.71 ± 621.15 mL/h; Vss [1, 3]: 40360.07 ± 12917.92 mL; Clearances [1, 4]: 1291.22 ± 525.61 mL/h; Vss [1, 4]: 23782.60 ± 13625.69 mL; Vss [1, 5]: 35282.72 ± 25449.21 mL; MRT(0-t), ADHD rats compared with control rats ([1]; all concentrations): significantly higher; AUC(0-t), model rats compared with control rats ([1]; high-dose administration group): significantly greater; half-life [1, 7]: 12.2 ± 2.82 h; AUC(0-t) [1, 8]: 307 ± 55.6 ng·h/mL; Cmax [1, 8]: 73.1 ± 22.6 ng/mL; Tmax [1, 8]: 0.58 ± 0.13 h; half-life [1, 8]: 10.3 ± 4.24 h; MRT last [1, 8]: 7.95 ± 1.2 h; MRT inf [1, 8]: 14.5 ± 5.42 h |
| C[C@H]1O[C@@H](O[C@H]2CC[C@@]3(C)[C@@H](CC[C@]4(C)[C@@H]3C=C[C@]35OC[C@@]6(CCC(C)(C)C[C@H]63)[C@H](O)C[C@]54C)[C@]2(C)CO)[C@H](O)[C@@H](O[C@@H]2O[C@H](CO)[C@@H](O)[C@H](O)[C@H]2O)[C@H]1O [Saikosaponin D] | 1294.18± 361.60 ng/mL*(h)² | 3035.93± 850.28 ng/mL*(h)² | 761.68± 201.22 ng/mL*(h)² | 2701.81± 992.13 ng/mL*(h)² | 1149.72± 377.93 ng/mL*(h)² | 3004.18± 2085.30 ng/mL*(h)² | 132 ± 32.3 | 91.3 ± 24.6 | 22.6 ± 2.41 | 0.58 ± 0.13 | 15 ± 5.9 | 8.43 ± 0.96 | 20.3 ± 5.6 | 188 ± 55.2 | 145 ± 32.8 | 33.1 ± 3.36 | 0.54 ± 0.25 | 7.8 ± 1.36 | 14.8 ± 6.52 | 201 ± 50 | peak time ([1]; ADHD model rats): less than 1 h; Clearances [1, 3]: 3506.08 ± 856.33 mL/h; Vss [1, 3]: 53202.65 ± 17657.23 mL; Clearances [1, 4]: 1343.52 ± 399.07 mL/h; Vss [1, 4]: 26784.08 ± 8767.24 mL; Clearances [1, 5]: 1952.91 ± 715.40 mL/h; Vss [1, 5]: 26532.70 ± 7619.14 mL; MRT, model rats compared with control rats ([1]; high-dose): higher; half-life [1, 7]: 10.6 ± 4.96 h; AUC(0-t) [1, 8]: 156 ± 38.6 ng·h/mL; Cmax [1, 8]: 41.5 ± 12.4 ng/mL; Tmax [1, 8]: 0.38 ± 0.14 h; half-life [1, 8]: 10.3 ± 2.55 h; MRT last [1, 8]: 8.26 ± 0.54 h; MRT inf [1, 8]: 15.2 ± 2.75 h; AUC, ADHD model rats compared with control rats ([1]; medium- and high-dose): higher |
| CCC/C=C1\OC(=O)C2=C1CCC=C2 [Z-Ligustilide] | 458.69± 201.28 ng/mL*(h)² | 1348.99± 756.73 ng/mL*(h)² | 322.64± 100.23 ng/mL*(h)² | 870.35± 311.46 ng/mL*(h)² | 383.83± 150.84 ng/mL*(h)² | 1224.58± 657.13 ng/mL*(h)² | 49.3 ± 14.7 | 36.7 ± 18.2 | 4.07 ± 1.85 | 1.67 ± 1.21 | 12.8 ± 3.2 | 8.9 ± 1.12 | 17.9 ± 4.8 | 62.2 ± 24.5 | 44.7 ± 18.2 | 5.57 ± 2.26 | 1.13 ± 0.44 | 8.72 ± 0.8 | 20 ± 7.8 | 69.7 ± 27.1 | oral bioavailability [2]: relatively poor; t1/2 [1, 5]: 14.63 ± 7.18 h; AUC(0-t) [1, 8]: 49.5 ± 16.8 ng·h/mL; Cmax [1, 8]: 6.63 ± 1.78 ng/mL; Tmax [1, 8]: 0.96 ± 0.1 h; half-life [1, 8]: 12.5 ± 3.72 h; MRT last [1, 8]: 8.9 ± 1.5 h; MRT inf [1, 8]: 18 ± 5 h |
